From US20090176817A1, “Method of Treatment of Diarrhea-Predominant Irritable Bowel Syndrome in a Subject” (priority 2005, published 2009)

System: diarrhea-predominant IBS subjects
Experiment: Study S241.3.011: weekly diary questions on adequate relief
Format: in vivo, human
Conditions: for Number of months a subject was a responder: Zero months (IBS symptoms) / Overall responder rate, adequate relief of IBS symptoms / Overall responder rate, adequate relief of abdominal pain/discomfort / Overall responder rate, adequate relief of abnormal bowel habits / Number of months a subject was a responder: One month (Abdominal pain/discomfort) / Number of months a subject was a responder: One month (Abnormal bowel habits) / Number of months a subject was a responder: One month (IBS symptoms) / Number of months a subject was a responder: Three months (Abdominal pain/discomfort) / Number of months a subject was a responder: Three months (Abnormal bowel habits) / Number of months a subject was a responder: Three months (IBS symptoms) / Number of months a subject was a responder: Two months (Abdominal pain/discomfort) / Number of months a subject was a responder: Two months (Abnormal bowel habits) / Number of months a subject was a responder: Two months (IBS symptoms) / Number of months a subject was a responder: Zero months (Abdominal pain/discomfort) / Number of months a subject was a responder: Zero months (Abnormal bowel habits): three-month treatment period; for Number of months a subject was a responder: Zero months (IBS symptoms) / Number of months a subject was a responder: One month (Abdominal pain/discomfort) / Number of months a subject was a responder: One month (Abnormal bowel habits) / Number of months a subject was a responder: One month (IBS symptoms) / Number of months a subject was a responder: Three months (Abdominal pain/discomfort) / Number of months a subject was a responder: Three months (Abnormal bowel habits) / Number of months a subject was a responder: Three months (IBS symptoms) / Number of months a subject was a responder: Two months (Abdominal pain/discomfort) / Number of months a subject was a responder: Two months (Abnormal bowel habits) / Number of months a subject was a responder: Two months (IBS symptoms) / Number of months a subject was a responder: Zero months (Abdominal pain/discomfort) / Number of months a subject was a responder: Zero months (Abnormal bowel habits): monthly LOCF; for Overall responder rate, adequate relief of IBS symptoms / Overall responder rate, adequate relief of abdominal pain/discomfort / Overall responder rate, adequate relief of abnormal bowel habits: observed case
Protocol: Study S241.3.011 was a Phase III, double-blind, placebo-controlled, randomized, multinational study to investigate the safety and efficacy of 2 mg TID of cilansetron for a period of 12 weeks followed by a rerandomized, placebo-controlled four-week treatment period, in diarrhea-predominant IBS subjects. The study was conducted in six countries including the US. A total of 2115 subjects consented to participate, and 770 subjects were randomized. A total of 746 subjects were analyzed for efficacy and 755 subjects were analyzed for safety. Diagnosis and main criteria for inclusion were IBS subjects satisfying the Rome I criteria (1992); the diarrhea predominant sub-population of the Rome II criteria; and a minimum abdominal pain/discomfort, stool frequency and consistency determined during the run-in period. Subjects were treated with cilansetron 2 mg tablets given orally TID or matching placebo tablets given orally TID for 12 weeks followed by a rerandomized, placebo-controlled four-week treatment period.
The primary efficacy parameter was the number of months that a subject was a responder for IBS symptoms (abdominal pain, abdominal discomfort, abnormal bowel habits) over the 12-week treatment period. A responder for a month (monthly responder) was defined as a subject who answered the weekly question with “yes” at least twice for that month. The two main secondary efficacy parameters were the monthly responder rates based on the “adequate relief” questions regarding abdominal pain/discomfort and abnormal bowel habits during the 12-week treatment period. The overall response rate and responder rate for the weekly diary questions on adequate relief at each month and all months, the adequate relief rate, the number of subjects with adequate relief by week, daily diary questions, IBS-QOL scores, and the interruption of activities were also assessed. Safety was evaluated by physical examination, ECG, vital signs, laboratory evaluations, concomitant medications, and AEs.
Subjects who were initially randomized to the cilansetron 2 mg TID group and rerandomized to placebo, will be referred to as the C/P treatment group; subjects initially randomized to the placebo group and rerandomized to placebo will be referred to as the P/P treatment group; the P/C and C/C treatment group nomenclature follow the same principle. Of the 591 subjects who completed the three-month treatment period, 576 subjects were rerandomized and thus divided into the following treatment groups: 150 subjects in the C/C treatment group, 140 subjects in the C/P treatment group, 136 subjects in the P/C treatment group, and 150 subjects in the P/P treatment group. Of the 576 subjects rerandomized, a higher percentage of subjects in the C/C treatment group (99%) completed the study compared with the C/P (95%), P/C (93%), and the P/P (95%) treatment groups.
Studies S24 1.3.OO6, S24 1.3.0 1 1, and S24 1.3.009 used the following efficacy measurements: • The subjects answered the following three questions with “yes” or “no” using a phone diary at the end of each week: • a) During the last week, did you experience adequate relief of your IBS symptoms, such as abdominal pain, abdominal discomfort, abnormal bowel habits? • b) During the last week, did you experience adequate relief of your abdominal pain and/or discomfort? • c) During the last week, did you experience adequate relief of your abnormal bowel habits? • The subjects rated the following symptoms using the phone diary at the end of each day: • abdominal pain/discomfort (five-point scale); • stool consistency (seven-point Bristol Stool Scale); • stool frequency (number of bowel movements each day); • urgency (five-point scale); • straining (yes or no); • feeling of incomplete defecation (yes or no); • bloating or feeling of abdominal distension (five-point scale). • In Studies S241 A006 and S241.3.009, subjects completed the IBS-QOL Survey at Baseline (Day 1) and at the end of treatment. […]

[1] = Baseline BMI: <30 kg/m^2, ITT, 2 mg TID
[2] = Baseline BMI: ≧30 kg/m^2, ITT, 2 mg TID
[3] = Baseline severity of IBS: non-severe, ITT, 2 mg TID
[4] = Baseline severity of IBS: severe, ITT, 2 mg TID
[5] = Duration of IBS: >24 months to ≦48 months, 2 mg TID, monthly LOCF imputation, ITT

## Cc1nccn1C[C@H]1CCc2c(c3cccc4c3n2CCC4)C1=O [Cilansetron, (R)-(−)-4,5,6,8,9,10-hexahydro-10-[(2-methyl-1H-imidazol-1-yl)methyl]-11H-pyrido-[3,2,1-jk]-carbazol-11-one]
[1]
  Number of months a subject was a responder: Zero months (IBS symptoms): 73 (27) n (%)
  Overall responder rate, adequate relief of IBS symptoms: 148 (56) n (%)
  Overall responder rate, adequate relief of abdominal pain/discomfort: 158 (59) n (%)
  Overall responder rate, adequate relief of abnormal bowel habits: 150 (56) n (%)
[2]
  Number of months a subject was a responder: One month (Abdominal pain/discomfort): 15 (14) n (%)
  Number of months a subject was a responder: One month (Abnormal bowel habits): 17 (15) n (%)
  Number of months a subject was a responder: One month (IBS symptoms): 16 (14) n (%)
  Number of months a subject was a responder: Three months (Abdominal pain/discomfort): 46 (41) n (%)
  Number of months a subject was a responder: Three months (Abnormal bowel habits): 45 (41) n (%)
  Number of months a subject was a responder: Three months (IBS symptoms): 41 (37) n (%)
  Number of months a subject was a responder: Two months (Abdominal pain/discomfort): 22 (20) n (%)
  Number of months a subject was a responder: Two months (Abnormal bowel habits): 15 (14) n (%)
  Number of months a subject was a responder: Two months (IBS symptoms): 22 (20) n (%)
  Number of months a subject was a responder: Zero months (Abdominal pain/discomfort): 28 (25) n (%)
  Number of months a subject was a responder: Zero months (Abnormal bowel habits): 34 (31) n (%)
  Number of months a subject was a responder: Zero months (IBS symptoms): 32 (29) n (%)
  Overall responder rate, adequate relief of IBS symptoms: 58 (52) n (%)
  Overall responder rate, adequate relief of abdominal pain/discomfort: 63 (57) n (%)
  Overall responder rate, adequate relief of abnormal bowel habits: 53 (48) n (%)
[3]
  Number of months a subject was a responder: One month (Abdominal pain/discomfort): 25 (11) n (%)
  Number of months a subject was a responder: One month (Abnormal bowel habits): 26 (12) n (%)
  Number of months a subject was a responder: One month (IBS symptoms): 29 (13) n (%)
  Number of months a subject was a responder: Three months (Abdominal pain/discomfort): 97 (44) n (%)
  Number of months a subject was a responder: Three months (Abnormal bowel habits): 88 (40) n (%)
  Number of months a subject was a responder: Three months (IBS symptoms): 92 (41) n (%)
  Number of months a subject was a responder: Two months (Abdominal pain/discomfort): 40 (18) n (%)
  Number of months a subject was a responder: Two months (Abnormal bowel habits): 40 (18) n (%)
  Number of months a subject was a responder: Two months (IBS symptoms): 39 (18) n (%)
  Number of months a subject was a responder: Zero months (Abdominal pain/discomfort): 60 (27) n (%)
  Number of months a subject was a responder: Zero months (Abnormal bowel habits): 68 (31) n (%)
  Number of months a subject was a responder: Zero months (IBS symptoms): 62 (28) n (%)
  Overall responder rate, adequate relief of IBS symptoms: 124 (56) n (%)
  Overall responder rate, adequate relief of abdominal pain/discomfort: 131 (59) n (%)
  Overall responder rate, adequate relief of abnormal bowel habits: 121 (55) n (%)
[4]
  Number of months a subject was a responder: One month (Abdominal pain/discomfort): 20 (13) n (%)
  Number of months a subject was a responder: One month (Abnormal bowel habits): 24 (15) n (%)
  Number of months a subject was a responder: One month (IBS symptoms): 25 (16) n (%)
  Number of months a subject was a responder: Three months (Abdominal pain/discomfort): 62 (40) n (%)
  Number of months a subject was a responder: Three months (Abnormal bowel habits): 61 (39) n (%)
  Number of months a subject was a responder: Three months (IBS symptoms): 56 (36) n (%)
  Number of months a subject was a responder: Two months (Abdominal pain/discomfort): 32 (21) n (%)
  Number of months a subject was a responder: Two months (Abnormal bowel habits): 26 (17) n (%)
  Number of months a subject was a responder: Two months (IBS symptoms): 31 (20) n (%)
  Number of months a subject was a responder: Zero months (Abdominal pain/discomfort): 41 (26) n (%)
  Number of months a subject was a responder: Zero months (Abnormal bowel habits): 44 (28) n (%)
  Number of months a subject was a responder: Zero months (IBS symptoms): 43 (28) n (%)
  Overall responder rate, adequate relief of IBS symptoms: 82 (53) n (%)
  Overall responder rate, adequate relief of abdominal pain/discomfort: 90 (58) n (%)
  Overall responder rate, adequate relief of abnormal bowel habits: 82 (53) n (%)
Caucasians
  Overall responder rate, IBS symptoms: 53%
  Overall responder rate, abdominal pain/discomfort: 57%
  Overall responder rate, abnormal bowel habits: 51%
[5]
  Number of months a subject was a responder during the three-month treatment period: Abdominal pain/discomfort, One month: 10 (14) n (%)
  Number of months a subject was a responder during the three-month treatment period: Abdominal pain/discomfort, Three months: 32 (44) n (%)
  Number of months a subject was a responder during the three-month treatment period: Abdominal pain/discomfort, Two months: 15 (21) n (%)
  Number of months a subject was a responder during the three-month treatment period: Abdominal pain/discomfort, Zero months: 15 (21) n (%)
  Number of months a subject was a responder during the three-month treatment period: Abnormal bowel habits, One month: 10 (14) n (%)
  Number of months a subject was a responder during the three-month treatment period: Abnormal bowel habits, Three months: 32 (44) n (%)
